In brackets after ≈: the same amount, converted by molar mass. Structures can show the parent of a compound that is named as a salt. Where two headings read alike, the source gives them in different places.
Assays:
Format in all cases: cell-based
S. aureus F-3095 = assay: Susceptibility test 1: MIC by micro-dilution method; settings: Staphylococcus aureus
Description: (§1) Test substances were initially dissolved in dimethylsulfoxide. Antibacterial activities (MICs) of the same compounds were determined by the micro-dilution method as recommended by the Japanese Society of Chemotherapy.
(§2) The bacteria cultured on Mueller-Hinton agar (MHA) plates at 35° C. overnight were suspended in sterile physiological saline in a concentration that was equivalent to 0.5 McFarland. The bacterial inoculum was prepared by 10-fold dilution of this suspension. Approximately 0.005 mL of the bacterial inoculum was inoculated into Cation-adjusted Mueller-Hinton broth (CAMHB, 100 μL/well) containing the test substance and was incubated at 35° C. overnight. The lowest concentration of the test substance at which no bacterial growth was macroscopically observed was determined as the MIC.

S. aureus FDA209P = assay: as above; settings: Staphylococcus aureus, read-out: MIC (μg/mL) S. aureus FDA209P
Description: as §1, §2

Cytotoxicity test (XTT) = settings: African green monkey, vero cells, 3 days incubation, absorbance 450 nm, read-out: CC50 (concentration when cell proliferation was inhibited by 50%)
Description: Each test substance was dissolved in dimethyl sulfoxide and was prepared to each concentration with E-MEM containing 10% FBS, and then 0.1 mL of this solution was dispensed into each well of a 96-well microplate. A vero cell suspension containing 3×10^4 cells/mL was prepared with E-MEM containing 10% FBS, and 0.1 mL of the suspension was inoculated to each well. After incubation in 5% CO2 at 37° C. for 3 days, 50 μL of E-MEM containing 1 mg/mL of 2,3-bis-(2-methoxy-4-nitro-5-sulfophenyl)-5-[(phenylamino)carbonyl]-2H-tetrazolium, inner salt, monosodium salt (XTT) and 25 μM of phenazine methosulfate (PMS) was added to each well. After about 2 hours, the absorbance at 450 nm was measured with a microplate reader.
The absorbance ratio of each well supplied with the test substance and the control not containing the test substance was calculated, and the concentration of each compound when cell proliferation was inhibited by 50% (CC50; μg/mL) was calculated.

[1] = F3095, F-3095 (MDRSA), CAMHB, 35° C. overnight, lowest concentration with no macroscopic growth, read-out: MIC (μg/mL) S. aureus F-3095
[2] = CAMHB, 35° C. overnight, lowest concentration with no macroscopic growth
[3] = F3095, read-out: MIC (μg/mL) S. aureus F-3095

MIC (S. aureus F-3095; [1])	MIC (S. aureus FDA209P; [2])	Structure (SMILES)	CC50 at 3 days (Cytotoxicity test (XTT))	MIC (S. aureus F-3095; [3])	MIC (S. aureus FDA209P)
0.0313 µg/mL (≈ 0.0645 µM)	0.0313 µg/mL (≈ 0.0645 µM)	O=C1CSc2cc(Cl)c(CNC3CCN(CCn4c(=O)ccc5ccncc54)CC3)nc2N1 [Example 30, 7-chloro-6-(((1-(2-(2-oxo-1,7-naphthyridin-1(2H)-yl)ethyl)piperidin-4-yl)amino)methyl)-2H-pyrido(3,2-b)(1,4)thiazin-3(4H)-one]	≥ 51.2 µg/mL		
0.0625 µg/mL (≈ 0.147 µM)	0.0625 µg/mL (≈ 0.147 µM)	COc1cnc2ccc(=O)n(CCN3CCC(NCc4cnc(C)c(F)c4)CC3)c2n1 [Example 96, 5-(2-(4-(((5-fluoro-6-methylpyridin-3-yl)methyl)amino)piperidin-1-yl)ethyl)-3-methoxypyrido(2,3-b)pyrazin-6(5H)-one]	≥ 51.2 µg/mL		
		CCc1ncc(CNC2CCN(CCn3c(=O)ccc4ncc(OC)cc43)CC2)cc1F [Example 137, 1-(2-(4-(((6-ethyl-5-fluoropyridin-3-yl)methyl)amino)piperidin-1-yl)ethyl)-7-methoxy-1,5-naphthyridin-2(1H)-one hydrochloride]		0.0625 µg/mL	0.0313 µg/mL
		CCc1ccc(CNC2CCN(CCn3c(=O)ccc4ncc(OC)cc43)CC2)nc1 [Example 123, 1-(2-(4-(((5-ethylpyridin-2-yl)methyl)amino)piperidin-1-yl)ethyl)-7-methoxy-1,5-naphthyridin-2(1H)-one hydrochloride]		0.125 µg/mL	0.0313 µg/mL
		O=c1ccc2ccncc2n1CCN1CCC(NCc2cc(-c3cccs3)on2)CC1 [Example 35, 1-(2-(4-(((5-(2-thienyl)isoxazol-3-yl)methyl)amino)piperidin-1-yl)ethyl)-1,7-naphthyridin-2(1H)-one hydrochloride]	≥ 51.2 µg/mL	0.0313 µg/mL	0.0313 µg/mL
		COc1ccc2ccc(=O)n(CCN3CCC(NCc4ccc5c(c4)OCCO5)CC3)c2n1 [Example 44, 1-(2-(4-((2,3-dihydro-1,4-benzodioxin-6-ylmethyl)amino)piperidin-1-yl)ethyl)-7-methoxy-1,8-naphthyridin-2(1H)-one hydrochloride]		0.0313 µg/mL	0.0313 µg/mL
		COc1cnc2ccc(=O)n(CCN3CCC(NCc4ccc(C)c(F)c4)CC3)c2c1 [Example 17, 1-(2-(4-((3-fluoro-4-methylbenzyl)amino)piperidin-1-yl)ethyl)-7-methoxy-1,5-naphthyridin-2(1H)-one hydrochloride]		0.0313 µg/mL	0.0039 µg/mL
		Cc1cc(=O)n(CCN2CCC(NCc3cc4c(cn3)OCCO4)CC2)c2cc(F)cnc12 [Example 146, 1-(2-(4-((2,3-dihydro(1,4)dioxino(2,3-c)pyridin-7-ylmethyl)amino)piperidin-1-yl)ethyl)-7-fluoro-4-methyl-1,5-naphthyridin-2(1H)-one hydrochloride]		0.0625 µg/mL	0.0625 µg/mL
		COc1cnc2ccc(=O)n(CCN3CCC(NCc4cc5c(cn4)OCCO5)[C@H](O)C3)c2c1 (stereo in doubt) [Example 95, 1-(2-((3R,4R)-4-((2,3-dihydro(1,4)dioxino(2,3-c)pyridin-7-ylmethyl)amino)-3-hydroxypiperidin-1-yl)ethyl)-7-methoxy-1,5-naphthyridin-2(1H)-one]	≥ 51.2 µg/mL	0.0625 µg/mL (≈ 0.134 µM)	0.0313 µg/mL (≈ 0.0669 µM)
		Cc1ccc(CNC2CCN(CCn3c(=O)ccc4ccncc43)CC2)cc1F [Example 8, 1-(2-(4-((3-fluoro-4-methylbenzyl)amino)piperidin-1-yl)ethyl)-1,7-naphthyridin-2(1H)-one hydrochloride]	≥ 51.2 µg/mL	0.0313 µg/mL	0.0313 µg/mL
		COc1cnc2ccc(=O)n(CCN3CCC(NCc4cnc5c(c4)OCCO5)CC3)c2c1 [Example 80, 1-(2-(4-((2,3-dihydro(1,4)dioxino(2,3-b)pyridin-7-yl)methylamino)piperidin-1-yl)ethyl)-7-methoxy-1,5-naphthyridin-2(1H)-one hydrochloride]	≥ 51.2 µg/mL	0.0156 µg/mL	0.0078 µg/mL
0.0313 µg/mL (≈ 0.0651 µM)	0.0313 µg/mL (≈ 0.0651 µM)	COc1cnc2ccc(=O)n(CCN3CCC(NCc4ccc5c(n4)NC(=O)CS5)CC3)c2c1 [Example 90, 6-(((1-(2-(7-methoxy-2-oxo-1,5-naphthyridin-1(2H)-yl)ethyl)piperidin-4-yl)amino)methyl)-2H-pyrido(3,2-b)(1,4)thiazin-3(4H)-one]	≥ 51.2 µg/mL		
0.0313 µg/mL (≈ 0.0695 µM)	0.0313 µg/mL (≈ 0.0695 µM)	O=C1CSc2ccc(CNC3CCN(CCn4c(=O)ccc5ccncc54)CC3)nc2N1 [Example 33, 6-(((1-(2-(2-oxo-1,7-naphthyridin-1(2H)-yl)ethyl)piperidin-4-yl)amino)methyl)-2H-pyrido(3,2-b)(1,4)thiazin-3(4H)-one]	≥ 51.2 µg/mL		
		O=c1ccc2ncc(F)cc2n1CCN1CCC(NCc2cc3c(cn2)CCCO3)CC1 [Example 162, 1-(2-(4-((3,4-dihydro-2H-pyrano(3,2-c)pyridin-7-ylmethyl)amino)piperidin-1-yl)ethyl)-7-fluoro-1,5-naphthyridin-2(1H)-one hydrochloride]		0.0625 µg/mL	0.0313 µg/mL
		COc1ccc2ccc(=O)n(CCN3CCC(NCc4cc5c(cn4)OCCO5)CC3)c2n1 [Example 45, 1-(2-(4-((2,3-dihydro(1,4)dioxino(2,3-c)pyridin-7-ylmethyl)amino)piperidin-1-yl)ethyl)-7-methoxy-1,8-naphthyridin-2(1H)-one hydrochloride]		0.0625 µg/mL	0.0313 µg/mL
0.0625 µg/mL (≈ 0.136 µM)	0.0313 µg/mL (≈ 0.0681 µM)	COc1cnc2ccc(=O)n(CCN3CCC(NCc4cncc(-c5ccco5)c4)CC3)c2c1 [Example 147, 1-(2-(4-(((5-(2-furyl)pyridin-3-yl)methyl)amino)piperidin-1-yl)ethyl)-7-methoxy-1,5-naphthyridin-2(1H)-one]			
0.0156 µg/mL (≈ 0.0335 µM)	0.0078 µg/mL (≈ 0.0168 µM)	COc1cnc2ccc(=O)n(CCN3CCC(NCc4cc(-c5ccsc5)on4)CC3)c2c1 [Example 133, 7-methoxy-1-(2-(4-(((5-(3-thienyl)isoxazol-3-yl)methyl)amino)piperidin-1-yl)ethyl)-1,5-naphthyridin-2(1H)-one]			
		COc1cnc2ccc(=O)n(CCN3CCC(NCc4cc5c(cn4)OCCCO5)CC3)c2c1 [Example 118, 1-(2-(4-((3,4-dihydro-2H-(1,4)dioxepino(2,3-c)pyridin-8-ylmethyl)amino)piperidin-1-yl)ethyl)-7-methoxy-1,5-naphthyridin-2(1H)-one hydrochloride]		0.0625 µg/mL	0.0625 µg/mL
0.0313 µg/mL (≈ 0.0715 µM)	0.0313 µg/mL (≈ 0.0715 µM)	O=c1ccc2ncc(F)cc2n1CCN1CCC(NCc2cc(-c3ccco3)on2)CC1 [Example 143, 7-fluoro-1-(2-(4-(((5-(2-furyl)isoxazol-3-yl)methyl)amino)piperidin-1-yl)ethyl)-1,5-naphthyridin-2(1H)-one]			
		COc1cnc2ccc(=O)n(CCN3CCC(NCc4cc5c(cn4)OCCC5)CC3)c2c1 [Example 144, 1-(2-(4-((3,4-dihydro-2H-pyrano(2,3-c)pyridin-6-ylmethyl)amino)piperidin-1-yl)ethyl)-7-methoxy-1,5-naphthyridin-2(1H)-one hydrochloride]		0.0313 µg/mL	0.0313 µg/mL
		COc1cnc2ccc(=O)n(CCN3CCC(NCc4cncc(-c5cccs5)c4)CC3)c2c1 [Example 141, 7-methoxy-1-(2-(4-(((5-(2-thienyl)pyridin-3-yl)methyl)amino)piperidin-1-yl)ethyl)-1,5-naphthyridin-2(1H)-one hydrochloride]		0.0313 µg/mL	0.0313 µg/mL

From patent publication US8367831B2, “Heterocyclic compound or salt thereof and intermediate thereof” (priority 2006, dated 2013)
